Test system: co-culture of keratinocytes and melanocytes
Assay: Depigmenting activity test: inhibition of melanogenesis on a co-culture of keratinocytes and melanocytes
Format: cell-based
Details: for Class (maximum depigmenting activity): inhibition of melanogenesis relative to the control; for IC50: co-culture of keratinocytes and melanocytes, read-out: IC50 (concentration for which a 50% inhibition of melanogenesis is observed)
Experimental: This test corresponds to the one described in patent FR 2,734,825 filed by the Applicant, as well as in the article by R. Schmidt, P. Krien and M. Régnier, Anal. Biochem., 235 (2), 113-18, (1996). This test is thus carried out on a co-culture of keratinocytes and melanocytes.
For each test compound, the IC50 value, which corresponds to the micromolar concentration (μM) for which a 50% inhibition of melanogenesis is observed, is determined.
Moreover, a class is given to each of these compounds as regards their maximum depigmenting activity:
class 1: 10 to 30% inhibition of melanogenesis relative to the control (same experiment without test compound);
class 2: 30 to 60% inhibition of melanogenesis relative to the control (same experiment without test compound);
class 3: 60 to 100% inhibition of melanogenesis relative to the control (same experiment without test compound).

Row | SMILES | Class (maximum depigmenting activity) (500 μM) | IC50 [µM] | Class (maximum depigmenting activity) (100 μM)
1 | O=c1cc(CO)occ1O [Kojic acid] | 2 to 500 μM (class 2: 30 to 60% inhibition of melanogenesis relative to the control (same experiment without test compound)) | 500 | 
2 | CCCCCCCCCCCC(=O)Oc1ccc(NC(C)=O)cc1 [Lauroyl [4-(N-acetylamino)] phenol, Lauroyl [4-(N-acetylamino)]phenol] |  | > 100 | 2 to 100 μM (class 2: 30 to 60% inhibition of melanogenesis relative to the control (same experiment without test compound))

Reference: patent publication US6365135B1, “Use of amino phenol amide derivatives as depigmentation agents” (L'Oreal, priority 1997, dated 2002)
